Common to all, as to assay type: biochemical
The target in one data set is CYP3A4 (Homo sapiens, UniProt P08684). In words: fluorescent probe substrate. Conditions: liver microsomes. A general note: Liver microsomes are a subcellular fraction often used to study metabolism.
Another data set addresses T1, PTGS1 (Ovis aries, UniProt P05979).
T1 sequence (P05979 25-600): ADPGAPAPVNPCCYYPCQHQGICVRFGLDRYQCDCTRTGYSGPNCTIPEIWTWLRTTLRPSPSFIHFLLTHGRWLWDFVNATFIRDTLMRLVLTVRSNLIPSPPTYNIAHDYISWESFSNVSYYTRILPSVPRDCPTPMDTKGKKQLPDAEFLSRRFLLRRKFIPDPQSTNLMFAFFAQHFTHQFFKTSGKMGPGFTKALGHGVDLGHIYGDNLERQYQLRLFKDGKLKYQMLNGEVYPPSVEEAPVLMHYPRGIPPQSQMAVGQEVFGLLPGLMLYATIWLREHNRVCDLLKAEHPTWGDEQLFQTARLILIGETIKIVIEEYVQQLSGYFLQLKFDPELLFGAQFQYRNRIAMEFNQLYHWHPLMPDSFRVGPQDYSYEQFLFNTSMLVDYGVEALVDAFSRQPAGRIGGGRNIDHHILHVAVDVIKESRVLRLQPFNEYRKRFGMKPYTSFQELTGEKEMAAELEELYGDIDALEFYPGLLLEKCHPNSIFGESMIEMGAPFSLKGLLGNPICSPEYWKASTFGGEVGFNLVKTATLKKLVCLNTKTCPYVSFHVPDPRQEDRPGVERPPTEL
In words: colorimetric enzyme activity assay.

A further data set deals with T2, CYP1A1 (Homo sapiens, UniProt P04798).
T2 sequence (P04798 1-512): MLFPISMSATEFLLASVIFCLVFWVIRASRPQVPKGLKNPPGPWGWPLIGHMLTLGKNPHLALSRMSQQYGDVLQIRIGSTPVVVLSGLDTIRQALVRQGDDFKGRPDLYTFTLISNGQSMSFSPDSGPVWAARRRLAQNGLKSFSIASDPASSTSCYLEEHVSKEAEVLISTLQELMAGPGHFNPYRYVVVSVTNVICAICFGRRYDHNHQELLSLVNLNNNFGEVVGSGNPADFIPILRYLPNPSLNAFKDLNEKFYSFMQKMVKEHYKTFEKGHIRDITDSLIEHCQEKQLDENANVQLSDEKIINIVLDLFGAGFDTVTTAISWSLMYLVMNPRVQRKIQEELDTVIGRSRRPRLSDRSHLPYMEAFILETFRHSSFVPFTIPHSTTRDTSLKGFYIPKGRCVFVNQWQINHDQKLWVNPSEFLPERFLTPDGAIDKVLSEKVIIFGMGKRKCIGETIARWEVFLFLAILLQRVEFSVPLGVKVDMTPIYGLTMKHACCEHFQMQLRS

Sequence of CYP3A4 (P08684 2-503): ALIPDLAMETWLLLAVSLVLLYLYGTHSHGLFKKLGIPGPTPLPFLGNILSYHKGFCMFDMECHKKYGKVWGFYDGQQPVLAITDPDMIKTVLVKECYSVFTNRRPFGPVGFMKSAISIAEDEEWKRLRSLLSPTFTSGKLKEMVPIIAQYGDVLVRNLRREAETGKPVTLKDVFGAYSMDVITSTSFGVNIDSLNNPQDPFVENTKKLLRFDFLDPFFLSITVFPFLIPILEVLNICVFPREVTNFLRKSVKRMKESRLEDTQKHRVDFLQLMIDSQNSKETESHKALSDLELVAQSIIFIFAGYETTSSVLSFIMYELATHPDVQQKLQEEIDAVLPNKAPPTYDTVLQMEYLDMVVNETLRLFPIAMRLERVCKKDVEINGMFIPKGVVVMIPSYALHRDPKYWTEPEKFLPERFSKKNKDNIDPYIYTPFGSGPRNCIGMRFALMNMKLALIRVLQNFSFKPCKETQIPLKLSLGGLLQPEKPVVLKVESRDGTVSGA

`CC(=O)O[C@@H](C[C@@H](C)C1=C2C[C@H](O)[C@H]3[C@@]4(C)CCC(=O)C(C)(C)[C@@H]4CC[C@]3(C)[C@@]2(C)CC1)[C@H]1OC1(C)C` [alisol B 23-acetate] returned an IC50 against CYP3A4 of 0.45 ± 0.03 µM.

For the compound `O=C(O)[C@H]1O[C@@H](Oc2cc3oc(-c4ccccc4)cc(=O)c3c(O)c2O)[C@H](O)[C@@H](O)[C@@H]1O` [baicalin], the “colorimetric enzyme activity assay (590 nm)” value on PTGS1 was “Baicalin inhibited pure PTGS1 and AA induced platelet aggregation at the concentration as shown”.

In turn, `O=c1c(O[C@@H]2O[C@H](CO)[C@H](O)[C@H](O)[C@H]2O)c(-c2ccc(O)c(O)c2)oc2cc(O)cc(O)c12` [hyperoside] gave an IC50 against CYP1A1 of 105 ± 18.9 µM.

Broadly, the IC50 is the point on the concentration scale where inhibition reaches its midpoint. A high value points to lower potency.

The values are drawn from article PMC7480398 (Phytomedicine, 2020).
